Test results reported in patent US20260285850A1, “SUBSTITUTED OXAZOLIDINONES AND IMIDAZOLINONES AS HERBICIDES” (FMC CORPORATION, priority 2023, published 2026).

Key:
Assay type in all cases: in vivo
[1] = tested on: barnyardgrass (Echinochloa crus-galli); assay: Test A preemergence soil spray, visual injury rating 0-100; details: 10 days
Summary of the method: (§1)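 Visual injury ratings (0, no effect; 100, complete control) were assigned relative to untreated plants 10 days after treatment. Test chemicals, formulated with a surfactant-containing non-phytotoxic solvent, were applied in loam-sand soil either as a directed soil spray before emergence or to emerged plants, and plants were kept in a greenhouse.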

[2] = tested on: blackgrass (Alopecurus myosuroides); assay: as above; details: 10 days
Summary of the method: as §1

corn (Zea mays) [3] = assay: as above; details: 10 days
Summary of the method: as §1

[4] = tested on: green foxtail (Setaria viridis); assay: as above; details: 10 days
Summary of the method: as §1

kochia (Bassia scoparia) [5] = assay: as above; details: 10 days
Summary of the method: as §1

[6] = tested on: oat, wild (wild oat, Avena fatua); assay: as above; details: 10 days
Summary of the method: as §1

[7] = tested on: palmer (palmer amaranth, palmer pigweed, Amaranthus palmeri); assay: as above; details: 10 days
Summary of the method: as §1

[8] = tested on: ragweed (common ragweed, Ambrosia artemisiifolia); assay: as above; details: 10 days
Summary of the method: as §1

[9] = tested on: ryegrass, Italian (italian ryegrass, Lolium multiflorum); assay: as above; details: 10 days
Summary of the method: as §1

soybean (Glycine max) [10] = assay: as above; details: 10 days
Summary of the method: as §1

[11] = tested on: wheat (Triticum aestivum); assay: as above; details: 10 days
Summary of the method: as §1

[12] = tested on: barnyardgrass (Echinochloa crus-galli); assay: Test A postemergence application, visual injury rating 0-100
Summary of the method: as §1

[13] = tested on: blackgrass (Alopecurus myosuroides); assay: as above
Summary of the method: as §1

corn (Zea mays) [14] = assay: as above
Summary of the method: as §1

[15] = tested on: green foxtail (Setaria viridis); assay: as above
Summary of the method: as §1

[16] = tested on: horseweed (Erigeron canadensis); assay: as above
Summary of the method: as §1

kochia (Bassia scoparia) [17] = assay: as above
Summary of the method: as §1

[18] = tested on: oat, wild (wild oat, Avena fatua); assay: as above
Summary of the method: as §1

[19] = tested on: palmer (palmer amaranth, palmer pigweed, Amaranthus palmeri); assay: as above
Summary of the method: as §1

[20] = tested on: ragweed (common ragweed, Ambrosia artemisiifolia); assay: as above
Summary of the method: as §1

[21] = tested on: ryegrass, Italian (italian ryegrass, Lolium multiflorum); assay: as above
Summary of the method: as §1

soybean (Glycine max) [22] = assay: as above
Summary of the method: as §1

[23] = tested on: wheat (Triticum aestivum); assay: as above
Summary of the method: as §1

[24] = tested on: barnyardgrass (Echinochloa crusgalli); assay: Test B flooded paddy test, visual plant response rating 0-100; details: 250 g ai/ha, Flood, applied to paddy water, evaluated after 13 days
Summary of the method: (§2)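 Plants were grown to the 2-leaf stage, then pots were flooded to 3 cm above the soil and test compounds were applied directly into the paddy water. Water depth was held there throughout; after 13 days in a greenhouse, injury was scored visually against untreated controls.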

[25] = tested on: ducksalad (Heteranthera limosa); assay: as above; details: 250 g ai/ha, Flood, applied to paddy water, evaluated after 13 days
Summary of the method: as §2

rice (Oryza sativa) = assay: as above; details: 250 g ai/ha, Flood, applied to paddy water, evaluated after 13 days
Summary of the method: as §2

[26] = tested on: sedge, umbrella (small-flower umbrella sedge, Cyperus difformis); assay: as above; details: 250 g ai/ha, Flood, applied to paddy water, evaluated after 13 days
Summary of the method: as §2

[27] = 62 g ai/ha, 0 = no effect, 100 = complete control
[28] = 62 g ai/ha, postemergence, 10 days, 0 = no effect, 100 = complete control
[29] = Postemergence, 16 g ai/ha, greenhouse 10 days, 0 no effect, 100 complete control

CC1(C(=O)NC2CC=C(C(=O)OCC3CC3)C2)CN(c2cc(F)cc(Cl)c2)C(=O)O1 (centres unmarked) [Compound 144]
Barnyardgrass plant response rating ([1]; 16 g ai/ha, 0 to 100 scale): 0 | Barnyardgrass plant response rating (0-100) [1, 27]: 100 | Blackgrass plant response rating ([2]; 16 g ai/ha, 0 to 100 scale): 0 | Blackgrass plant response rating (0-100) [2, 27]: 0 | Corn plant response rating (corn (Zea mays) [3]; 16 g ai/ha, 0 to 100 scale): 0 | Corn plant response rating (0-100) (corn (Zea mays) [3]; [27]): 50 | Foxtail, Green plant response rating ([4]; 16 g ai/ha, 0 to 100 scale): 0 | Foxtail, Green plant response rating (0-100) [4, 27]: 90 | Kochia plant response rating (kochia (Bassia scoparia) [5]; 16 g ai/ha, 0 to 100 scale): 0 | Kochia plant response rating (0-100) (kochia (Bassia scoparia) [5]; [27]): 40 | Oat, Wild plant response rating ([6]; 16 g ai/ha, 0 to 100 scale): 0 | Oat, Wild plant response rating (0-100) [6, 27]: 20 | Pigweed, Palmer plant response rating ([7]; 16 g ai/ha, 0 to 100 scale): 50 | Pigweed, Palmer plant response rating (0-100) [7, 27]: 80 | Ragweed plant response rating ([8]; 16 g ai/ha, 0 to 100 scale): 0 | Ragweed plant response rating (0-100) [8, 27]: 0 | Ryegrass, Italian plant response rating ([9]; 16 g ai/ha, 0 to 100 scale): 10 | Ryegrass, Italian plant response rating (0-100) [9, 27]: 60 | Soybean plant response rating (soybean (Glycine max) [10]; 16 g ai/ha, 0 to 100 scale): 0 | Soybean plant response rating (0-100) (soybean (Glycine max) [10]; [27]): 10 | Wheat plant response rating ([11]; 16 g ai/ha, 0 to 100 scale): 0 | Wheat plant response rating (0-100) [11, 27]: 70 | Barnyardgrass plant response rating (0-100) [12, 28]: 100 | Barnyardgrass plant response rating (0 to 100 scale) [12, 29]: 90 | Blackgrass plant response rating (0-100) [13, 28]: 100 | Blackgrass plant response rating (0 to 100 scale) [13, 29]: 70 | Corn plant response rating (0-100) (corn (Zea mays) [14]; [28]): 100 | Corn plant response rating (0 to 100 scale) (corn (Zea mays) [14]; [29]): 100 | Foxtail, Green plant response rating (0-100) [15, 28]: 90 | Foxtail, Green plant response rating (0 to 100 scale) [15, 29]: 90 | Horseweed plant response rating (0-100) [16, 28]: 80 | Horseweed plant response rating (0 to 100 scale) [16, 29]: 50 | Kochia plant response rating (0-100) (kochia (Bassia scoparia) [17]; [28]): 80 | Kochia plant response rating (0 to 100 scale) (kochia (Bassia scoparia) [17]; [29]): 80 | Oat, Wild plant response rating (0-100) [18, 28]: 40 | Oat, Wild plant response rating (0 to 100 scale) [18, 29]: 20 | Pigweed, Palmer plant response rating (0-100) [19, 28]: 90 | Pigweed, Palmer plant response rating (0 to 100 scale) [19, 29]: 70 | Ragweed plant response rating (0-100) [20, 28]: 50 | Ragweed plant response rating (0 to 100 scale) [20, 29]: 20 | Ryegrass, Italian plant response rating (0-100) [21, 28]: 90 | Ryegrass, Italian plant response rating (0 to 100 scale) [21, 29]: 60 | Soybean plant response rating (0-100) (soybean (Glycine max) [22]; [28]): 80 | Soybean plant response rating (0 to 100 scale) (soybean (Glycine max) [22]; [29]): 80 | Wheat plant response rating (0-100) [23, 28]: 90 | Wheat plant response rating (0 to 100 scale) [23, 29]: 60 | Plant response rating, Barnyardgrass (0 to 100 scale, 0 is no effect and 100 is complete control) [24]: 95 | Plant response rating, Ducksalad (0 to 100 scale, 0 is no effect and 100 is complete control) [25]: 80 | Plant response rating, Rice (0 to 100 scale, 0 is no effect and 100 is complete control) (rice (Oryza sativa)): 50 | Plant response rating, Sedge, Umbrella (0 to 100 scale, 0 is no effect and 100 is complete control) [26]: 100
